US8802597B2, “Herbicidal pyrimidines” (E I du Pont de Nemours and Company, priority 2003, dated 2014)
Where two headings read alike, the source gives them in different places.

Key:
Assay in all cases: Test C pre/postemergence
Format in all cases: in vivo
soybean (Glycine max) = details: Glycine max; for plant injury at 16 g/ha: 16 g ai/ha; for plant injury at 62 g/ha: 62 g ai/ha; for plant injury at 125 g/ha: 125 g ai/ha
Summary of the method: (§1)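 Seeds sown and sprayed preemergence with test compound in non-phytotoxic solvent containing surfactant; postemergence sprays, same formulation, went onto plants 2 to 18 cm tall (1- to 4-leaf stage). Plants held in greenhouse 12 to 14 days, then visually rated against untreated controls on a 0–100 scale (0 no effect, 100 complete control).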

[1] = tested on: Surinam grass (Brachiaria decumbens); details: Urochloa decumbens; for pest or weed control at 125 g/ha: 125 g ai/ha; for pest or weed control at 16 g/ha: 16 g ai/ha; for pest or weed control at 31 g/ha: 31 g ai/ha; for pest or weed control at 62 g/ha: 62 g ai/ha
Summary of the method: as §1

[2] = tested on: eastern black nightshade (Solanum ptycanthum); details: Solanum, pre-emergence, Preemergence, read-out: Plant response rating, Nightshade
Summary of the method: as §1

[3] = tested on: bermudagrass (Cynodon dactylon); details: Cynodon dactylon; for pest or weed control at 16 g/ha: 16 g ai/ha; for pest or weed control at 31 g/ha: 31 g ai/ha; for pest or weed control at 62 g/ha: 62 g ai/ha; for pest or weed control at 125 g/ha: 125 g ai/ha
Summary of the method: as §1

[4] = tested on: common ragweed (Ambrosia elatior); details: Ambrosia artemisiifolia; for pest or weed control at 16 g/ha: 16 g ai/ha; for pest or weed control at 31 g/ha: 31 g ai/ha; for pest or weed control at 62 g/ha: 62 g ai/ha; for pest or weed control at 125 g/ha: 125 g ai/ha
Summary of the method: as §1

[5] = tested on: goosegrass (Eleusine indica); details: Eleusine indica; for pest or weed control at 16 g/ha: 16 g ai/ha; for pest or weed control at 31 g/ha: 31 g ai/ha; for pest or weed control at 62 g/ha: 62 g ai/ha; for pest or weed control at 125 g/ha: 125 g ai/ha
Summary of the method: as §1

[6] = tested on: lambsquarters (Chenopodium album); details: Chenopodium album, post-emergence, Postemergence, read-out: Plant response rating (scale of 0 to 100), Lambsquarters
Summary of the method: as §1

[7] = post-emergence, Postemergence, scale 0 to 100 (0 no effect, 100 complete control), read-out: Soybean plant response rating
[8] = pre-emergence, Preemergence, scale 0 to 100, 0 no effect, 100 complete control, read-out: Plant response rating, Soybean
[9] = post-emergence, Postemergence, scale 0 to 100 (0 no effect, 100 complete control), read-out: Surinam Grass plant response rating
[10] = post-emergence, Postemergence, read-out: Plant response rating (scale of 0 to 100), Surinam Grass
[11] = pre-emergence, Preemergence, scale 0 to 100, 0 no effect, 100 complete control, read-out: Plant response rating, Surinam Grass
[12] = post-emergence, Postemergence, read-out: Plant response rating (scale of 0 to 100), Bermudagrass
[13] = post-emergence, Postemergence, scale 0 to 100 (0 no effect, 100 complete control), read-out: Bermudagrass plant response rating
[14] = pre-emergence, Preemergence, scale 0 to 100, 0 no effect, 100 complete control, read-out: Plant response rating, Bermudagrass
[15] = post-emergence, Postemergence, read-out: Plant response rating (scale of 0 to 100), Ragweed
[16] = post-emergence, Postemergence, scale 0 to 100 (0 no effect, 100 complete control), read-out: Ragweed plant response rating
[17] = pre-emergence, Preemergence, scale 0 to 100, 0 no effect, 100 complete control, read-out: Plant response rating, Ragweed
[18] = post-emergence, Postemergence, read-out: Plant response rating (scale of 0 to 100), Goosegrass
[19] = post-emergence, Postemergence, scale 0 to 100 (0 no effect, 100 complete control), read-out: Goosegrass plant response rating
[20] = pre-emergence, Preemergence, scale 0 to 100, 0 no effect, 100 complete control, read-out: Plant response rating, Goosegrass

What does the source list for COC(=O)c1nc(C2CC2)nc(N)c1F [Compound 25]?
plant injury at 16 g/ha (soybean (Glycine max); post-emergence, Postemergence, read-out: Plant response rating (scale of 0 to 100), Soybean): 40%; plant injury at 31 g/ha (soybean (Glycine max); post-emergence, Postemergence, 31 g ai/ha, read-out: Plant response rating (scale of 0 to 100), Soybean): 90%; plant injury at 62 g/ha (soybean (Glycine max); [7]): 90%; plant injury at 125 g/ha (soybean (Glycine max); [7]): 90%; plant injury at 16 g/ha (soybean (Glycine max); [8]): 30%; plant injury at 62 g/ha (soybean (Glycine max); [8]): 60%; plant injury at 125 g/ha (soybean (Glycine max); pre-emergence, Preemergence, scale 0 to 100, read-out: Plant response rating, Soybean): 65%; pest or weed control at 125 g/ha [1, 9]: 5%; pest or weed control at 16 g/ha [1, 10]: 0%; pest or weed control at 31 g/ha [1, 10]: 0%; pest or weed control at 62 g/ha [1, 9]: 0%; pest or weed control at 16 g/ha [1, 11]: 0%; pest or weed control at 31 g/ha [1, 11]: 0%; pest or weed control at 62 g/ha [1, 11]: 0%; pest or weed control at 125 g/ha ([1]; pre-emergence, Preemergence, scale 0 to 100, read-out: Plant response rating, Surinam Grass): 40%; pest or weed control at 16 g/ha ([2]; 16 g ai/ha, scale 0 to 100, 0 no effect, 100 complete control): 0%; pest or weed control at 31 g/ha ([2]; 31 g ai/ha, scale 0 to 100, 0 no effect, 100 complete control): 0%; pest or weed control at 62 g/ha ([2]; 62 g ai/ha, scale 0 to 100, 0 no effect, 100 complete control): 30%; pest or weed control at 125 g/ha ([2]; 125 g ai/ha, scale 0 to 100): 75%; pest or weed control at 16 g/ha [3, 12]: 0%; pest or weed control at 31 g/ha [3, 12]: 0%; pest or weed control at 62 g/ha [3, 13]: 0%; pest or weed control at 125 g/ha [3, 13]: 0%; pest or weed control at 16 g/ha [3, 14]: 0%; pest or weed control at 31 g/ha [3, 14]: 0%; pest or weed control at 62 g/ha [3, 14]: 0%; pest or weed control at 125 g/ha ([3]; pre-emergence, Preemergence, scale 0 to 100, read-out: Plant response rating, Bermudagrass): 10%; pest or weed control at 16 g/ha [4, 15]: 40%; pest or weed control at 31 g/ha [4, 15]: 50%; pest or weed control at 62 g/ha [4, 16]: 65%; pest or weed control at 125 g/ha [4, 16]: 70%; pest or weed control at 16 g/ha [4, 17]: 0%; pest or weed control at 31 g/ha [4, 17]: 70%; pest or weed control at 62 g/ha [4, 17]: 70%; pest or weed control at 125 g/ha ([4]; pre-emergence, Preemergence, scale 0 to 100, read-out: Plant response rating, Ragweed): 85%; pest or weed control at 16 g/ha [5, 18]: 0%; pest or weed control at 31 g/ha [5, 18]: 0%; pest or weed control at 62 g/ha [5, 19]: 0%; pest or weed control at 125 g/ha [5, 19]: 0%; pest or weed control at 16 g/ha [5, 20]: 0%; pest or weed control at 31 g/ha [5, 20]: 0%; pest or weed control at 62 g/ha [5, 20]: 0%; pest or weed control at 125 g/ha ([5]; pre-emergence, Preemergence, scale 0 to 100, read-out: Plant response rating, Goosegrass): 0%; pest or weed control at 16 g/ha ([6]; 16 g ai/ha): 30%; pest or weed control at 31 g/ha ([6]; 31 g ai/ha): 60%
